System: Brattleboro rat
Experiment: inhibition of urine output in Brattleboro rats
Type: in vivo
Settings: 1 mg/kg p.o. in methylcellulose, vs control animals
Description: The Brattleboro rat is a recognised model for vasopressin deficiency (for a review see F D Grant, “Genetic models of vasopressin deficiency”, Exp. Physiol. 85, 203S-209S, 2000). […] Compounds of the invention were administered to Brattleboro rats (0.1-10 mg/kg p.o. in methylcellulose. Urine was collected hourly and volumes were compared with control animals. Animals had free access to food and water throughout the experiment. Representative results are given in the Table. Results for Desmopressin are given for comparison.

**Q.** With `Cc1cc(C(=O)N2CCCCc3ccccc32)ccc1CNC(=O)N1CCC[C@H]1C(=O)N(C)C` [Example 1, 1-(2-Methyl-4-(2,3,4,5-tetrahydro-1-benzazepin-1-ylcarbonyl)benzylcarbamoyl)-L-proline-N,N-dimethylamide] as the compound, how does the “% inhibition of urine output (at 1 hour)” value read?
**A.** Its value is 82%.
